Reference: PubChem BioAssay (NCI)
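Five concentrations, 48 hours, 96-well plates. TGI denotes the concentration required for complete inhibition of growth.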

Assays:
Experiment in all cases: NCI tumour cell line growth inhibition, 48 h
[1] = tested on: SW-620 colon
[2] = tested on: NCI-H23 lung
[3] = tested on: CCRF-CEM leukemia
[4] = tested on: SNB-19 CNS
[5] = tested on: SK-MEL-2 melanoma
[6] = tested on: NCI-H226 lung
[7] = tested on: M14 melanoma
[8] = tested on: MOLT-4 leukemia
[9] = tested on: U251 CNS
[10] = tested on: UO-31 renal
[11] = tested on: EKVX NSCLC
[12] = tested on: SF-539 CNS
[13] = tested on: RXF 393 renal
[14] = tested on: UACC-62 melanoma
[15] = tested on: KM20L2 colon
[16] = tested on: K-562 leukemia
[17] = tested on: HOP-62 NSCLC
[18] = tested on: RPMI-8226 leukemia
[19] = tested on: SN12C renal
[20] = tested on: A498 renal
[21] = tested on: DMS 114 small cell lung
[22] = tested on: NCI-H460 lung
[23] = tested on: TK-10 renal
[24] = tested on: NCI-H522 lung
[25] = tested on: M19-MEL melanoma
[26] = tested on: OVCAR-4 ovarian
[27] = tested on: HCT-116 colon
[28] = tested on: SF-268 CNS
[29] = tested on: SK-OV-3 ovarian
[30] = tested on: HL-60(TB) leukemia
[31] = tested on: SNB-78 CNS
[32] = tested on: HT29 colon
[33] = tested on: CAKI-1 renal
[34] = tested on: SF-295 CNS
[35] = tested on: HCT-15 colon
[36] = tested on: DMS 273 small cell lung
[37] = tested on: HCC-2998 colon
[38] = tested on: OVCAR-3 ovarian
[39] = tested on: IGROV1 ovarian
[40] = tested on: MALME-3M melanoma
[41] = tested on: COLO 205 colon
[42] = tested on: A549 NSCLC
[43] = tested on: SK-MEL-5 melanoma
[44] = tested on: LOX IMVI melanoma
[45] = tested on: 786-0 renal
[46] = tested on: ACHN renal
[47] = tested on: OVCAR-5 ovarian
[48] = tested on: KM12 colon
[49] = tested on: SR leukemia
[50] = tested on: SNB-75 CNS
[51] = tested on: OVCAR-8 ovarian
[52] = tested on: UACC-257 melanoma
[53] = tested on: SK-MEL-28 melanoma

Measured: TGI

CC(=O)OC1CCC2OOC1O2 (stereo not drawn)
> 100 µM: all assays above
